Patent US20190125790A1, “USE OF HYPOCHLOROUS ACID AS A TOPICAL ANTIMICROBIAL” (BIIOSMART TECHNOLOGIES LLC, priority 2016, published 2019)

Experiment: Controlled randomized single blind clinical trial in surgical open wounds
Assay type: in vivo, human
Procedure: The biocompatibility of the 0.046% HOCl concentration aqueous solution was tested in a three way controlled and randomized single blind clinical trial. Patients were randomized into three groups (60 patients per group). The antiseptic efficacy and biocompatibility of the test solution vs. povidone-iodine vs. chlorhexidine (Chlorhexidine Gluconate—CHG) in surgical—clean and clean contaminated—open wounds was evaluated in 180 patients admitted to the surgical facilities of Erasmo Meoz Hospital in Cucuta, Colombia.

[H]/N=C(\N/C(=N/[H])NCCCCCCNC(=N)NC(=N)Nc1ccc(Cl)cc1)Nc1ccc(Cl)cc1 [chlorhexidine, Chlorhexidine Gluconate]
infected patients (after five days follow-up, 60 patients per group): two | wound appearance (biocompatibility) (human, in vivo): dried edges and no promising color in wound bed
